From patent publication US8921397B2, “Benzofurane-piperidine compounds” (Hoffmann-La Roche Inc., priority 2011, dated 2014) come the findings set out here.

For one data set, the target named is human 5-HT2A receptor (Homo sapiens (Human), UniProt P28223). Put plainly: Radioligand binding ([3H]-ketanserin) to human 5-HT2A receptor, HEK293 EBNA membranes. As to conditions: HEK293 EBNA cells expressing human 5-HT2A receptor. In short, it runs like this: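 Membranes from HEK293 EBNA cells transiently expressing the human receptor were incubated 1 h at RT with ~0.7 nM (D2) or 0.5 nM (D3) [3H]-spiperone, or 1.1 nM [3H]-ketanserin (5-HT2A), plus ten compound concentrations (10 μM–0.1 nM). Nonspecific binding was set with 10 μM spiperone; Ki was derived from IC50 via Cheng-Prusoff.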
Sequence of human 5-HT2A receptor (P28223 whole entry): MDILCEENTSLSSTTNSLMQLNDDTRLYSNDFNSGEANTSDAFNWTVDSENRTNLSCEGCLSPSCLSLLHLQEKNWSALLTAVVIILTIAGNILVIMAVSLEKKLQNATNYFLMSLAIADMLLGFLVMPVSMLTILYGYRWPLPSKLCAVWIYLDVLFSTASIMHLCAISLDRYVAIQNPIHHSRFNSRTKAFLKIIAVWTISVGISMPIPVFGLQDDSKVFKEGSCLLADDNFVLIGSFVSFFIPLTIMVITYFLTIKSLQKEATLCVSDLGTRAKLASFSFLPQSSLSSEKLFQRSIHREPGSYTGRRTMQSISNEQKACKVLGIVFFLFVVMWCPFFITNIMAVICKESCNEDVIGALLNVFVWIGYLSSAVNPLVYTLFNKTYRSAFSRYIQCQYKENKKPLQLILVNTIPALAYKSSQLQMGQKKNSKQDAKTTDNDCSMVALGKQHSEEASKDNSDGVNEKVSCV

The target of a further data set is human D2 receptor (Homo sapiens (Human), UniProt P14416). The data set is described as follows: Radioligand binding ([3H]-spiperone) to human D2 receptor, HEK293 EBNA membranes. To be noted: HEK293 EBNA cells expressing human D2 receptor. In short, it runs like this: (§1)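 Membranes from transiently transfected HEK293 EBNA cells (~7.5 μg protein/well) were incubated 1 h at RT with [3H]-spiperone (~0.7 nM for D2, 0.5 nM for D3) and ten compound concentrations (10 μM–0.1 nM) in Tris/NaCl/MgCl2/CaCl2 buffer pH 7.4. Filtration and scintillation counting, nonspecific with 10 μM spiperone; Ki via Cheng-Prusoff.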
Sequence of human D2 receptor (P14416 whole entry): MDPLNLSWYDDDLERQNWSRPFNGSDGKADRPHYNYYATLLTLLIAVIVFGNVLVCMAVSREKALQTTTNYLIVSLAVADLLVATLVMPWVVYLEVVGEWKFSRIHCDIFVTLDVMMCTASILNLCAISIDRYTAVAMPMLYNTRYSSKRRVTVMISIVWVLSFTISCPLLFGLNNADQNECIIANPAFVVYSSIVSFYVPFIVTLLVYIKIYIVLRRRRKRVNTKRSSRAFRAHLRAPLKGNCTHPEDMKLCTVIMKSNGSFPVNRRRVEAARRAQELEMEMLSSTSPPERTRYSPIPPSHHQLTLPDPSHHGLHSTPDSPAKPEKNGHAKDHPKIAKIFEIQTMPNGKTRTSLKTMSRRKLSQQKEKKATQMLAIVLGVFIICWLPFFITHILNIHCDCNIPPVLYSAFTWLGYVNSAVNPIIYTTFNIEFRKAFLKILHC

For a further data set, the target named is human D3 receptor (Homo sapiens (Human), UniProt P35462). Put plainly: Radioligand binding ([3H]-spiperone) to human D3 receptor, HEK293 EBNA membranes. To be noted: HEK293 EBNA cells expressing human D3 receptor. In short, it runs like this:
as §1

Molecules are shown by their SMILES.

Sequence of human D3 receptor (P35462 whole entry): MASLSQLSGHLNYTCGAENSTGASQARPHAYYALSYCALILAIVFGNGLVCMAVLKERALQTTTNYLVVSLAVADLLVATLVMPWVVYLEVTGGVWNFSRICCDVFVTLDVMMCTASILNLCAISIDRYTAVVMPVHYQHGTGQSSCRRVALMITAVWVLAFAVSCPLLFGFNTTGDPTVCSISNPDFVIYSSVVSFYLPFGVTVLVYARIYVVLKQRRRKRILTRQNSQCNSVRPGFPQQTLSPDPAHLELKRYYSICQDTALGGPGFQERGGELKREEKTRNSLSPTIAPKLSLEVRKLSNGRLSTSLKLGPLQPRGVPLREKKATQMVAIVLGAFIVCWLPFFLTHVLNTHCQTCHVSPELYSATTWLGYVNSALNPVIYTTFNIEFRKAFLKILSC

With `O=C(N[C@H]1CC[C@H](CCN2CCC(c3coc4ccccc34)CC2)CC1)C1CCCOC1` (stereo partly drawn) [Example 26, Tetrahydro-pyran-3-carboxylic acid trans-{4-[2-(4-benzofuran-3-yl-piperidin-1-yl)-ethyl]-cyclohexyl}-amide], the melting point worked out at 188 °C. In addition, the Ki at human 5-HT2A receptor was determined as 4.7 nM. The Ki at human D2 receptor came out at 37.1 nM. Besides, the Ki on human D3 receptor is 5.88 nM.

As a reminder, the Ki is the equilibrium dissociation constant of an inhibitor or competing ligand from its target. The term melting point denotes the temperature, or range, at which the solid turns liquid.
